In the supplement of paper PMC10307832:

Key:
Assay in all cases: relative viability (nuclei count vs DMSO), 5 days (fraction); higher = more cells survive
Tipifarnib = compound: Cn1cncc1[C@@](N)(c1ccc(Cl)cc1)c1ccc2c(c1)c(-c1cccc(Cl)c1)cc(=O)n2C [Tipifarnib]
Procedure, shortened: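 Viability was defined as treated-well nuclei divided by vehicle-well nuclei, with the median taken over replicate plates. Cells from lung cancer lines sat overnight at 37 °C in 1536-well plates, received five √10-spaced library-drug doses by pinning on vehicle-anchored plates, and grew 5 days without medium change before one-step fixation, permeabilisation and Hoechst staining, 4× imaging and MetaXpress nuclear counts. Only plates with control CV under 25% and at least one doubling were kept.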

Tipifarnib + Foretinib = compound: Cn1cncc1[C@@](N)(c1ccc(Cl)cc1)c1ccc2c(c1)c(-c1cccc(Cl)c1)cc(=O)n2C [Tipifarnib] + COc1cc2c(Oc3ccc(NC(=O)C4(C(=O)Nc5ccc(F)cc5)CC4)cc3F)ccnc2cc1OCCCN1CCOCC1 [Foretinib] (partner 0.25 µM)
Procedure, shortened: (§1)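 Dosing by pin tool came one day after lung cancer cell lines were seeded in 1536-well plates, using either one drug or a fixed anchor-drug dose plus five library-drug doses (not always all listed) in √10 steps. After 5 days, nuclei were counted on 4× images. Relative viability is treated-well nuclei count divided by vehicle-well nuclei count, and values are medians of duplicate plates.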

Tipifarnib + Pictilisib = compound: Cn1cncc1[C@@](N)(c1ccc(Cl)cc1)c1ccc2c(c1)c(-c1cccc(Cl)c1)cc(=O)n2C [Tipifarnib] + CS(=O)(=O)N1CCN(Cc2cc3nc(-c4cccc5[nH]ncc45)nc(N4CCOCC4)c3s2)CC1 [Pictilisib] (partner 1 µM)
Procedure, shortened: as §1

Tipifarnib + Olaparib = compound: Cn1cncc1[C@@](N)(c1ccc(Cl)cc1)c1ccc2c(c1)c(-c1cccc(Cl)c1)cc(=O)n2C [Tipifarnib] + O=C(c1cc(Cc2n[nH]c(=O)c3ccccc23)ccc1F)N1CCN(C(=O)C2CC2)CC1 [Olaparib] (partner 8 µM)
Procedure, shortened: as §1

Tipifarnib + Lapatinib = compound: Cn1cncc1[C@@](N)(c1ccc(Cl)cc1)c1ccc2c(c1)c(-c1cccc(Cl)c1)cc(=O)n2C [Tipifarnib] + CS(=O)(=O)CCNCc1ccc(-c2ccc3ncnc(Nc4ccc(OCc5cccc(F)c5)c(Cl)c4)c3c2)o1 [Lapatinib] (partner 2 µM)
Procedure, shortened: as §1

Tipifarnib + Linsitinib = compound: Cn1cncc1[C@@](N)(c1ccc(Cl)cc1)c1ccc2c(c1)c(-c1cccc(Cl)c1)cc(=O)n2C [Tipifarnib] + C[C@]1(O)C[C@@H](c2nc(-c3ccc4ccc(-c5ccccc5)nc4c3)c3c(N)nccn32)C1 [Linsitinib] (partner 1 µM)
Procedure, shortened: as §1

Tipifarnib + Crizotinib = compound: Cn1cncc1[C@@](N)(c1ccc(Cl)cc1)c1ccc2c(c1)c(-c1cccc(Cl)c1)cc(=O)n2C [Tipifarnib] + C[C@@H](Oc1cc(-c2cnn(C3CCNCC3)c2)cnc1N)c1c(Cl)ccc(F)c1Cl [Crizotinib] (partner 1 µM)
Procedure, shortened: as §1

Tipifarnib + Bortezomib = compound: Cn1cncc1[C@@](N)(c1ccc(Cl)cc1)c1ccc2c(c1)c(-c1cccc(Cl)c1)cc(=O)n2C [Tipifarnib] + CC(C)C[C@H](NC(=O)[C@H](Cc1ccccc1)NC(=O)c1cnccn1)B(O)O [Bortezomib] (partner 0.002 µM)
Procedure, shortened: as §1

Tipifarnib + Alpelisib = compound: Cn1cncc1[C@@](N)(c1ccc(Cl)cc1)c1ccc2c(c1)c(-c1cccc(Cl)c1)cc(=O)n2C [Tipifarnib] + Cc1nc(NC(=O)N2CCC[C@H]2C(N)=O)sc1-c1ccnc(C(C)(C)C(F)(F)F)c1 [Alpelisib] (partner 2 µM)
Procedure, shortened: as §1

Tipifarnib + Navitoclax = compound: Cn1cncc1[C@@](N)(c1ccc(Cl)cc1)c1ccc2c(c1)c(-c1cccc(Cl)c1)cc(=O)n2C [Tipifarnib] + CC1(C)CCC(c2ccc(Cl)cc2)=C(CN2CCN(c3ccc(C(=O)NS(=O)(=O)c4ccc(N[C@H](CCN5CCOCC5)CSc5ccccc5)c(S(=O)(=O)C(F)(F)F)c4)cc3)CC2)C1 [Navitoclax] (partner 0.5 µM)
Procedure, shortened: as §1

## NCI-H1299
Tipifarnib; 0.01 µM
  relative viability: 1.04
Tipifarnib; 0.03162 µM
  relative viability: 0.937
Tipifarnib; 0.1 µM
  relative viability: 0.958
Tipifarnib; 0.3162 µM
  relative viability: 0.836
Tipifarnib; 1 µM
  relative viability: 0.832
Tipifarnib + Foretinib; first compound 0.01 µM
  relative viability: 1.06
Tipifarnib + Foretinib; first compound 0.03162 µM
  relative viability: 1.04
Tipifarnib + Foretinib; first compound 0.1 µM
  relative viability: 1
Tipifarnib + Foretinib; first compound 0.3162 µM
  relative viability: 0.947
Tipifarnib + Foretinib; first compound 1 µM
  relative viability: 0.979
Tipifarnib + Pictilisib; first compound 0.01 µM
  relative viability: 0.64
Tipifarnib + Pictilisib; first compound 0.03162 µM
  relative viability: 0.837
Tipifarnib + Pictilisib; first compound 0.1 µM
  relative viability: 0.422
Tipifarnib + Pictilisib; first compound 0.3162 µM
  relative viability: 0.35
Tipifarnib + Pictilisib; first compound 1 µM
  relative viability: 0.298
Tipifarnib + Olaparib; first compound 0.01 µM
  relative viability: 0.984
Tipifarnib + Olaparib; first compound 0.03162 µM
  relative viability: 0.932
Tipifarnib + Olaparib; first compound 0.1 µM
  relative viability: 0.973
Tipifarnib + Olaparib; first compound 0.3162 µM
  relative viability: 0.791
Tipifarnib + Olaparib; first compound 1 µM
  relative viability: 0.783
Tipifarnib + Lapatinib; first compound 0.01 µM
  relative viability: 0.998
Tipifarnib + Lapatinib; first compound 0.03162 µM
  relative viability: 0.9
Tipifarnib + Lapatinib; first compound 0.1 µM
  relative viability: 0.915
Tipifarnib + Lapatinib; first compound 0.3162 µM
  relative viability: 0.845
Tipifarnib + Lapatinib; first compound 1 µM
  relative viability: 0.836
Tipifarnib + Linsitinib; first compound 0.01 µM
  relative viability: 1.06
Tipifarnib + Linsitinib; first compound 0.03162 µM
  relative viability: 0.886
Tipifarnib + Linsitinib; first compound 0.1 µM
  relative viability: 0.906
Tipifarnib + Linsitinib; first compound 0.3162 µM
  relative viability: 0.803
Tipifarnib + Linsitinib; first compound 1 µM
  relative viability: 0.635
Tipifarnib + Crizotinib; first compound 0.01 µM
  relative viability: 0.903
Tipifarnib + Crizotinib; first compound 0.03162 µM
  relative viability: 0.841
Tipifarnib + Crizotinib; first compound 0.1 µM
  relative viability: 0.795
Tipifarnib + Crizotinib; first compound 0.3162 µM
  relative viability: 0.832
Tipifarnib + Crizotinib; first compound 1 µM
  relative viability: 0.81
Tipifarnib + Bortezomib; first compound 0.01 µM
  relative viability: 0.988
Tipifarnib + Bortezomib; first compound 0.03162 µM
  relative viability: 0.954
Tipifarnib + Bortezomib; first compound 0.1 µM
  relative viability: 0.929
Tipifarnib + Bortezomib; first compound 0.3162 µM
  relative viability: 0.847
Tipifarnib + Bortezomib; first compound 1 µM
  relative viability: 0.816
Tipifarnib + Alpelisib; first compound 0.01 µM
  relative viability: 1.04
Tipifarnib + Alpelisib; first compound 0.03162 µM
  relative viability: 1.04
Tipifarnib + Alpelisib; first compound 0.1 µM
  relative viability: 0.971
Tipifarnib + Alpelisib; first compound 0.3162 µM
  relative viability: 0.973
Tipifarnib + Alpelisib; first compound 1 µM
  relative viability: 0.941
Tipifarnib + Navitoclax; first compound 0.01 µM
  relative viability: 0.966
Tipifarnib + Navitoclax; first compound 0.03162 µM
  relative viability: 0.969
Tipifarnib + Navitoclax; first compound 0.1 µM
  relative viability: 0.977
Tipifarnib + Navitoclax; first compound 0.3162 µM
  relative viability: 0.88
Tipifarnib + Navitoclax; first compound 1 µM
  relative viability: 0.828
